Several values for one entry are separate records, joined by “and”; a condition that tells them apart may be missing. Equal entries are not always repeated.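 The compound was tested at five concentrations on cells cultured in 96-well plates, with a 48-hour exposure period. Here, GI50 denotes the concentration required for 50% inhibition of growth. TGI is the concentration that stops growth completely.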
How the values were obtained:
Assay in all cases: inhibition of tumour cell growth, NCI panel, 48 h
A549 NSCLC = test system: A549 NSCLC
COLO 205 colon = test system: COLO 205 colon
KM12 colon = test system: KM12 colon
MDA-MB-231 breast = test system: MDA-MB-231 breast
NCI-H23 lung = test system: NCI-H23 lung
NCI/ADR-RES ovarian = test system: NCI/ADR-RES ovarian
SF-268 CNS = test system: SF-268 CNS
SF-539 CNS = test system: SF-539 CNS
SNB-75 CNS = test system: SNB-75 CNS
UO-31 renal = test system: UO-31 renal

| Compound | GI50 (A549 NSCLC) | TGI (A549 NSCLC) | GI50 (COLO 205 colon) | TGI (COLO 205 colon) | GI50 (KM12 colon) | TGI (KM12 colon) | GI50 (MDA-MB-231 breast) | TGI (MDA-MB-231 breast) | GI50 (NCI-H23 lung) | TGI (NCI-H23 lung) | GI50 (NCI/ADR-RES ovarian) | TGI (NCI/ADR-RES ovarian) | GI50 (SF-268 CNS) | TGI (SF-268 CNS) | GI50 (SF-539 CNS) | TGI (SF-539 CNS) | GI50 (SNB-75 CNS) | TGI (SNB-75 CNS) | GI50 (UO-31 renal) | TGI (UO-31 renal) |
| --- | --- | --- | --- | --- | --- | --- | --- | --- | --- | --- | --- | --- | --- | --- | --- | --- | --- | --- | --- | --- |
| COC1CCC(N2C(=O)CNc3ncc(-c4ccc(C(C)(C)O)nc4)nc32)CC1 (stereo unspecified) | 1.48 µM and 0.337 µM | > 34.5 µM | 1.03 µM and 0.176 µM | > 8.63 µM and 9.06 µM | 1.2 µM and 0.302 µM | > 40.8 µM | 0.52 µM and 0.283 µM | 4.8 µM and 25.3 µM | 1.16 µM and 0.35 µM | > 45.1 µM | 1.64 µM and 0.435 µM | > 100 µM | 1.97 µM and 0.356 µM | > 41.5 µM | 1.42 µM and 0.335 µM | 6.95 µM and 4.7 µM | 0.281 µM and 0.0543 µM | 3.54 µM and 1.6 µM | 0.199 µM and 0.0768 µM | 3.08 µM and 10.5 µM |
| O=C(Nc1ccc(Cl)c(Cl)c1)Nc1ccc(Cl)c(Cl)c1 | 2.98 µM and 2.29 µM | 15.6 µM and 10.6 µM | 1.77 µM and 2.07 µM | 3.3 µM and 3.69 µM | 3.04 µM and 2.52 µM | 11.6 µM and 6.99 µM | 1.63 µM and 1.73 µM | 3.79 µM and 3.7 µM | 2.63 µM and 2.4 µM | 10.2 µM and 11.4 µM | 3.03 µM and 2.7 µM | 12.9 µM and 14 µM | 3.92 µM and 3.88 µM | 15.1 µM and 14.5 µM | 2.63 µM and 3.64 µM | 8.15 µM and 14.7 µM | 2.15 µM and 2.85 µM | 7.81 µM and 18.8 µM | 2.25 µM and 2.74 µM | 7.78 µM and 8.91 µM |
| CC1=C(C(=O)Nc2ccc(Cl)c(Cl)c2)C(c2cccc(Oc3ccccc3)c2)NC(=S)N1 (stereo unspecified) | 9.51 µM | 23.7 µM | 9.38 µM | 21.1 µM | 5.71 µM | 12.6 µM | 8.69 µM | 16.6 µM | – | – | 10.2 µM | 17.4 µM | 6.1 µM | 12.9 µM | 6.6 µM | 13 µM | 8.26 µM | 18.4 µM | 7.63 µM | 17.6 µM |
| OCc1ccc(N2CCC2c2ccc(F)cc2)cc1Cl (stereo unspecified) | 7.44 µM | 64 µM | 3.44 µM | 15.3 µM | 24.3 µM | > 66.4 µM | 22.6 µM | > 68.3 µM | 22.2 µM | > 80.1 µM | 23.7 µM | > 88.8 µM | 35 µM | > 100 µM | 33.5 µM | > 71 µM | 20.6 µM | > 100 µM | 20.8 µM | 76.3 µM |
| O=C(/C=C/C12c3ccccc3C(c3ccccc31)C1C(=O)NC(=O)C12)c1ccncc1 (stereo unspecified) | 13.4 µM | 27.2 µM | 3.57 µM | 9.43 µM | 1.85 µM | 4.42 µM | 3.13 µM | 12.7 µM | 2.09 µM | 4.45 µM | 2.31 µM | 6.71 µM | 2.46 µM | 8.48 µM | 2.03 µM | 5.72 µM | 2.19 µM | 10.9 µM | 1.48 µM | 4.8 µM |
| NC(Cc1c[nH]c2c(O)cccc12)C(=O)O (stereo unspecified) | > 100 µM | > 100 µM | > 100 µM | > 100 µM | > 100 µM | > 100 µM | > 100 µM | > 100 µM | > 100 µM | > 100 µM | > 100 µM | > 100 µM | > 100 µM | > 100 µM | > 100 µM | > 100 µM | > 100 µM | > 100 µM | > 100 µM | > 100 µM |
| O=C1CC(c2ccc3c(c2)OCO3)Nc2ccccc21 (stereo unspecified) | 17.1 µM | 76.6 µM | 16.5 µM | 37.2 µM | 5.36 µM | 20.8 µM | 8.06 µM | 36.5 µM | 12.2 µM | 32.7 µM | 11.8 µM | 39.9 µM | 10.4 µM | 35.6 µM | 10.8 µM | 24 µM | 4.04 µM | 18.5 µM | 5.9 µM | 19.4 µM |
| O=C1C=C(Cl)C(=O)C(c2ccc(Cl)cc2)=C1 | – | > 100 µM | – | 31 µM | – | > 100 µM | – | 36 µM | – | 67.3 µM | – | 79 µM | – | 42.3 µM | – | 32.4 µM | – | 59.8 µM | – | 28.5 µM |
| O=C1C(Cl)=C(Nc2cccc(Cl)c2)C(=O)N1Cc1ccc(Cl)cc1Cl | 3.85 µM | 19.6 µM | 1 µM | 16 µM | 7.89 µM | 39.2 µM | 0.176 µM | 12.9 µM | 2.14 µM | 25.6 µM | 0.904 µM | 25 µM | 1.37 µM | 25 µM | < 0.0466 µM | 2.92 µM | 1.29 µM | 9.92 µM | 0.431 µM | 3.45 µM |
| CCOC(=O)[C@]1(OC(C)=O)C[C@H](OC(C)=O)[C@@H](C(F)COP(=O)(OCc2ccccc2)OCc2ccccc2)O1 (stereo partly specified) | – | > 100 µM | 19.4 µM and > 100 µM | 36.3 µM and > 100 µM | 19.3 µM and > 100 µM | 41.2 µM and > 100 µM | – | > 100 µM | 48.9 µM and > 100 µM | > 100 µM | – | > 100 µM | – | > 100 µM | – | > 100 µM | – | > 100 µM | 21.6 µM and > 100 µM | 43.5 µM and > 100 µM |
| Cc1ccc(C(=O)/C(=C/c2ccc([N+](=O)[O-])cc2)SCc2ccc(Cl)cc2)cc1 | 98.5 µM | > 100 µM | 3.33 µM | 20.7 µM | 1.91 µM | 5.73 µM | 1.96 µM | 5.8 µM | 2.73 µM | 20.7 µM | 2.06 µM | 6.81 µM | 2.44 µM | 15.8 µM | 2.06 µM | 4.49 µM | 20.4 µM | > 100 µM | 1.2 µM | 2.66 µM |
| COc1cc(/C=N/NC(=O)c2ccc(C(F)(F)F)nc2Nc2ccc(Cl)cc2C)ccc1O | 3.54 µM | 15.1 µM | 3.25 µM | 10.4 µM | 2.23 µM | 7.16 µM | 0.939 µM | 10.3 µM | 3.63 µM | 16.7 µM | 2.66 µM | 9.97 µM | 1.78 µM | 13.3 µM | 2.12 µM | 7.66 µM | 4.79 µM | 21.3 µM | 1.39 µM | 7.76 µM |
| NNC(=O)Nc1cccnc1 | – | > 100 µM | – | > 100 µM | – | > 100 µM | – | > 100 µM | – | > 100 µM | – | > 100 µM | – | – | – | > 100 µM | – | > 100 µM | – | > 100 µM |
